Tests used:
[1] = biological target: T1, human PPAR δ (Homo sapiens, UniProt Q03181); test: Luciferase assay using human PPAR δ (Gal4-PPAR chimeric receptor reporter in CV-1 cells); assay type: cell-based; details: relative to 30 μM carbacyclin defined as 1, 42 hours
T1 construct: expressed in transfected cells; host or cells: CV-1 cells
T1 sequence (Q03181 139-441): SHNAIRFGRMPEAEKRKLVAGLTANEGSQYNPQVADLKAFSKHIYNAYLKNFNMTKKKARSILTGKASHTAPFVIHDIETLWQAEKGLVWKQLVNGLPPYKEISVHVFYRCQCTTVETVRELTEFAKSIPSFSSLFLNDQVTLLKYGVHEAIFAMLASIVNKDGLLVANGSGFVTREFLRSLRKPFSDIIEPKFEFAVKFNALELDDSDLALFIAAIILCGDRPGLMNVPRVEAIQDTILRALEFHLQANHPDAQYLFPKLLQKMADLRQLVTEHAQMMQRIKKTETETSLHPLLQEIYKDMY

[2] = tested on: 7-weeks old male mice; test: Lowering effect of blood cholesterol and blood lipid in mice loaded with high cholesterol diets; assay type: in vivo; details: high cholesterol diet mice, plasma, vehicle administration group defined as 100%
Experimental: High cholesterol diets (CRF-1 solid pellet mixed of 5.5% peanut oil, 1.5% cholesterol, 0.5% cholic acid, Oriental Bio Service) are loaded to 7-weeks old male mice for six days and then the body weight of food-deprived […] are measured, the following various parameter levels are measured. The measurement items are LDL, HDL, TG level, NEFA, and TC level. Mice are divided into five per group based on TC level and the division was performed without bias in the average of other parameters. From the next day to six days in a row, the suspended solution of the compounds in vehicle (0.5% methylcellulose aqueous solution) are orally compellingly administered once daily and the loading of high cholesterol diets is continued. After the next day of termination of final administration (the 7th day of administration onset), plasma lipid (TG HDL, LDL, NEFA, TC level) is measured.
The relative activity of the compounds of the present invention was calculated under the condition that the value of vehicle administration group was defined as 100%. And then HDL cholesterol elevating effect and LDL cholesterol lowering effect of the compound prepared in Example 33 are shown in Table 2.

[3] = dose 3 mg/kg orally once daily for six days
[4] = dose 10 mg/kg orally once daily for six days
[5] = dose 30 mg/kg orally once daily for six days

Cc1sc(N2CCC(C(F)(F)F)CC2)nc1CCOc1cccc(CC(=O)O)c1F [Example 33, [2-fluoro-3-(2-{5-methyl-2-[4-(trifluoromethyl)piperidin-1-yl]-1,3-thiazol-4-yl}ethoxy)phenyl]acetic acid]
Fold increase of transcriptional activation ([1]; final concentration 0.1 μM): 0.47
Fold increase of transcriptional activation ([1]; final concentration 0.3 μM): 1.08
Fold increase of transcriptional activation ([1]; final concentration 1.0 μM): 1.23
HDL cholesterol elevating effect [2, 3]: 150.0%
LDL cholesterol lowering effect [2, 3]: 82.5%
HDL cholesterol elevating effect [2, 4]: 162.7%
LDL cholesterol lowering effect [2, 4]: 75.7%
HDL cholesterol elevating effect [2, 5]: 157.3%
LDL cholesterol lowering effect [2, 5]: 72.3%

From patent US7560475B2, “Phenylacetic acid derivative, process for producing the same, and use” (Ono Pharmaceutical Co., Ltd., priority 2003, dated 2009)
